Assay results published in patent US20260373266A1, “PROTEIN DEGRADERS AND USES THEREOF” (KYMERA THERAPEUTICS, INC., priority 2022, published 2026).
Read-outs that look alike come from different tables or passages of the source.

Biological target: T1, DCAF1 WD40 domain (residues 1077-1390) (Homo sapiens, UniProt Q9Y4B6)
T1 construct: DCAF1 WD40 domain (residues 1077-1390)
Assay: DCAF1 binding assay by SPR (Biacore 8K+), DCAF1-3 KD
Conditions: 25 °C

T1 sequence (Q9Y4B6 1077-1390): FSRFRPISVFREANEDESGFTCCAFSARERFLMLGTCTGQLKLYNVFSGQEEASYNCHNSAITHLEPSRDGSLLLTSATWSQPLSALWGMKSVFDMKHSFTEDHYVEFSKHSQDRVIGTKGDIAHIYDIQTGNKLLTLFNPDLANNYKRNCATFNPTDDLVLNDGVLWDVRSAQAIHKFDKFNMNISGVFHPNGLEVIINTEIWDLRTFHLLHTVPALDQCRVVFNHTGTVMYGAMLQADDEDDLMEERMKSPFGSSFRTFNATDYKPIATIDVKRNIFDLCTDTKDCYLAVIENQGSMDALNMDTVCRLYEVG

SMILES | Kd (read-out: DCAF1-3 SPR (KD)) [µM] | Kd (DCAF1-3 SPR (KD)) [µM]
C=CC(=O)NC1CCC(c2n[nH]cc2C(=O)N[C@@H](CC(N)=O)c2cccc(Cl)c2)CC1 (stereo partly drawn) [I-470] | > 200 | 
Fc1cccc(N2CCC[C@@H](Nc3cc([C@@H]4CCCOC4)ccn3)C2)c1 [I-123] | > 200 | 
NCCCCCCCCCCCCCCCCCC(=O)c1[nH]cc(C(=O)N[C@@H](CC(N)=O)c2cccc(Cl)c2)c1-c1ccccc1F [I-662] | > 200 | 
Fc1cccc(N2CCC[C@@H]3[C@H]2CCN3c2cc(N3CCCCC3)ccn2)c1 [I-579, (3aR,7aR)-4-(3-fluorophenyl)-1-(4-(piperidin-1-yl)pyridin-2-yl)octahydro-1H-pyrrolo[3,2-b]pyridine] |  | < 10
Cc1cccc(C(CC(N)=O)NC(=O)c2cn[nH]c2-c2ccccc2F)c1 (stereo not drawn) [I-331] | > 200 | 
Fc1cccc(N2CCC[C@@H](Nc3cc([C@H]4CCCOC4)ccn3)C2)c1 [I-125] | > 200 | 
Fc1cccc(N2CCC[C@@H](N(CCc3ccccc3)c3nccc(N4CCOCC4)n3)C2)c1 [I-323] | > 200 | 
c1cc(N2CCC[C@@H](Nc3cc(N4CCOCC4)ncn3)C2)c2ccncc2c1 [I-394] | > 200 | 
NC(=O)C[C@](CC(=O)O)(NC(=O)c1c[nH]nc1-c1ccccc1F)c1cccc(Cl)c1 [I-295] | > 200 | 
CCN1CCN(c2cc(N[C@@H]3CCCN(c4cccc(F)c4)C3)ncn2)CC1 [I-375] | > 200 | 
Fc1cccc(N2CCC[C@@H](Oc3cc(N4CCOCC4)ccn3)C2)c1 [I-81] | > 200 | 
Fc1cccc(N2C[C@H](Nc3cc(N4CCOCC4)ncn3)C3CC[C@H]2C3)c1 [I-383] | > 200 | 
Cn1cnc(C[C@H](O)C(=O)N[C@@H](CC(N)=O)c2cccc(Cl)c2)c1 [I-443] | > 200 | 
NC(=O)C[C@H](NC(=O)c1ccc(-c2nc(C3CC3)n[nH]2)cc1)c1cccc(Cl)c1 [I-439] | > 200 | 
c1ccc(-n2cnc3cc(N4CCC[C@@H](Nc5cc(N6CCOCC6)ccn5)C4)ccc32)cc1 [I-688] | > 200 | 
NC(=O)C[C@H](NC(=O)c1n[nH]c2ccccc12)c1cccc(Cl)c1 [I-297] | > 200 | 
CCCN1CCN(c2cc(N[C@@H]3CCCN(c4cccc(F)c4)C3)ncn2)CC1 [I-376] | > 200 | 
NC(=O)C[C@@](NC(=O)c1c[nH]nc1-c1ccccc1F)(c1ccccc1)c1cccc(Cl)c1 [I-256] | > 200 | 

SMILES | Kd (read-out: DCAF1-3 SPR (KD)) [µM] | Kd (DCAF1-3 SPR (KD)) [µM]
c1ccc2ncc(N3CCC[C@@H](Nc4cc(N5CCOCC5)ncn4)C3)cc2c1 [I-399] | > 200 | 
Fc1cccc(N2CCNC(Cc3cc(N4CCOCC4)ncn3)C2)c1 (stereo not drawn) [I-225] | > 200 | 
NC(=O)C[C@H](NC(=O)c1cn[nH]c1-c1ccccc1F)c1cccc(C(N)=O)c1 [I-353] | > 200 | 
O=c1cc(N2CCOCC2)cc(N[C@@H]2CCCN(c3cccc(F)c3)C2)[nH]1 [I-303] | > 200 | 
NC(=O)C[C@H](NC(=O)c1c[nH]nc1-c1cccc2cc[nH]c12)c1cccc(Cl)c1 [I-235] | > 200 | 
C=CC(=O)N1CCCC(N(C)c2ccnc(N[C@@H]3CCCN(c4cccc(F)c4)C3)c2)C1 (stereo partly drawn) [I-459] | > 200 | 
NC(=O)C[C@H](NC(=O)c1[nH]nc(CN2CCOCC2)c1-c1ccccc1F)c1cccc(Cl)c1 [I-178] | > 200 | 
NC(=O)C[C@H](NC(=O)c1c[nH]nc1-c1ccc2[nH]cnc2c1)c1cccc(Cl)c1 [I-240] | > 200 | 
O=[N+]([O-])c1ccc(N2CCC[C@@H](n3ccc4c(N5CCCCC5)ccnc43)C2)cc1F [I-917] | < 10 | 
COc1ccc(-c2[nH]ncc2C(=O)NC(C)C(=O)Nc2ccccc2)cc1 (stereo not drawn) [I-838] | > 200 | 
Fc1cccc([C@H]2CCC[C@@H](Nc3cc(N4CCOCC4)ccn3)C2)c1 [I-180] | > 200 | 
O=C(C[C@H](NC(=O)c1cn[nH]c1-c1ccccc1F)c1cccc(Cl)c1)NC1CC1 [I-142] | > 200 | 
CS(=O)(=O)CCC(=O)N1CCC[C@@H](Nc2cc(N3CCOCC3)ccn2)C1 [I-767] | > 200 | 
Fc1cccc(N2CCCC[C@@H](Nc3cc(N4CCOCC4)ncn3)C2)c1 [I-219] | > 200 | 
N#Cc1ccc(N2CCC[C@@H](Nc3cc(N4CCOCC4)ccn3)C2)cc1 [I-774] | > 200 | 
NC(=O)C[C@H](NC(=O)c1cn[nH]c1[C@@H]1CCCOC1)c1cccc(Cl)c1 [I-346] | > 200 | 
NC(=O)C[C@H](NC(=O)c1c[nH]nc1-c1c(F)cccc1F)c1cccc(Cl)c1 [I-207] | > 200 | 
c1cc2ccc(N3CCC[C@@H](Nc4cc(N5CCOCC5)ncn4)C3)cc2cn1 [I-402] | > 200 | 

The next lines start with results.

Kd (read-out: DCAF1-3 SPR (KD)) [µM] | SMILES | Kd (DCAF1-3 SPR (KD)) [µM]
< 10 | Nc1ncc(N[C@@H]2CCCN(c3cccc(F)c3)C2)cc1N1CCOCC1 [I-546] | 
> 200 | CCCCCCC[C@@H]1CCCN(c2ccnc(N3CC[C@@H]4[C@H]3CCCN4c3cccc(F)c3)c2)C1 [I-726] | 
> 200 | NC(=O)C[C@H](NC(=O)c1c[nH]nc1-c1cc(-c2nnn[nH]2)ccc1F)c1cccc(Cl)c1 [I-293] | 
< 10 | N#Cc1cccc(-c2[nH]ncc2C(=O)N[C@@H](CC(N)=O)c2cccc(Cl)c2)c1 [I-337] | 
> 200 | c1ccc2c(N3CCC[C@@H](Nc4cc(N5CCOCC5)ccn4)C3)nccc2c1 [I-62] | 
100 to 200 | CCc1cccc([C@@H](CC(N)=O)NC(=O)c2cn[nH]c2-c2ccccc2F)c1 [I-639] | 
> 200 | Fc1cccc(N2CC[C@@H](Nc3cc(N4CCOCC4)ncn3)C2)c1 [I-217] | 
100 to 200 | Fc1cccc(N2CCC[C@@H](n3ccc4c(N5CCOCC5)ccnc43)C2)c1 [I-49] | 
< 10 | N#Cc1ccccc1-c1[nH]ncc1C(=O)N[C@@H](CC(N)=O)c1cccc(Cl)c1 [I-338] | 
100 to 200 | C=CC(=O)NC1CCCN(c2ccnc(N[C@@H]3CCCN(c4cccc(F)c4)C3)c2)C1 (stereo partly drawn) [I-454] | 
> 200 | NC(=O)C[C@H](NC(=O)c1cn[nH]c1-c1ccccc1F)c1ccccc1C(N)=O [I-352] | 
> 200 | NC(=O)CC1(NC(=O)c2cn[nH]c2-c2ccccc2F)CCCc2c(Cl)cccc21 (stereo not drawn) [I-562] | 
> 200 | CN(c1cc(N2CCOCC2)ncn1)[C@@H]1CCCN(c2cccc(F)c2)C1 [I-385] | 
10 to 100 | C[C@H](NC(=O)c1c[nH]nc1-c1ccccc1F)c1cccc(Cl)c1 [I-106] | 
< 10 | Cc1c(F)ccc(F)c1-c1c(C(=O)N[C@@H](CC(N)=O)c2cccc(Cl)c2)cn(C)c1C(=O)c1ccc(OCCOCCOCCN)cc1 [I-1034] | 
10 to 100 | NC(=O)C[C@H](NC(=O)c1cn[nH]c1-c1ccccc1F)c1ccccc1Br [I-581] | 
10 to 100 | Oc1ccc(F)cc1N1CCC[C@@H]2[C@H]1CCN2c1cc(N2CCCCC2)ccn1 [I-812] | 
10 to 100 | Fc1cccc(N2CCC[C@@H]3[C@H]2CCN3c2cc(N3CCOCC3)ccn2)c1 [I-189] | 
100 to 200 | C=CC(=O)N1CCC(c2[nH]ncc2C(=O)N[C@H](CC(N)=O)c2cccc(Cl)c2)CC1 [I-535] | 
10 to 100 | NC(=O)[C@@H]1C[C@H](Nc2cc(N3CCCCC3)ccn2)CN(c2cccc(F)c2)C1 [I-1031] | 
10 to 100 | Fc1cccc(N2CCC[C@@H](Nc3cc(N4CCCCC4)cc4c3CNC4)C2)c1 [I-1050] | 
10 to 100 | O=C(C[C@H](NC(=O)c1cn[nH]c1-c1ccccc1F)c1cccc(Cl)c1)NCc1ccccc1 [I-84] | 
< 10 | NCCOCCOCCOCCOCCOCCC1CCN(c2ccnc(N3CC[C@@H]4[C@H]3CCCN4c3cccc(F)c3)c2)CC1 [I-651] | 

Kd (read-out: DCAF1-3 SPR (KD)) [µM] | SMILES | Kd (DCAF1-3 SPR (KD)) [µM]
< 10 | NC(=O)C[C@H](NC(=O)C1=C(c2c(F)cccc2F)CNC1)c1cccc(Cl)c1 [I-586] | 
10 to 100 | CNC(=O)C[C@H](NC(=O)c1cn[nH]c1-c1ccccc1F)c1cccc(Cl)c1 [I-79] | 
10 to 100 | C[C@H]1CCCCN1c1ccnc(N2CC[C@H]3[C@@H]2CCCN3c2cccc(F)c2)c1 [I-644] | 
< 10 | C=CC(=O)NC1CC2(CCN(c3ccnc(N[C@@H]4CCCN(c5cccc(F)c5)C4)c3)CC2)C1 [I-652] | 
100 to 200 | NC[C@@H]1CCN(c2cccc(F)c2)C[C@@H]1Nc1cc(N2CCCCC2)ccn1 [I-1045] | 
100 to 200 | Fc1cccc(N2CCC[C@@H](Nc3cccc(N4CCOCC4)n3)C2)c1 [I-17] | 
< 10 | NC(=O)C[C@H](NC(=O)c1cn[nH]c1-c1cccc(F)c1)c1cccc(Cl)c1 [I-115] | 
10 to 100 | Cc1cccc(F)c1-c1[nH]ncc1C(=O)N[C@@H](CC(N)=O)c1cc(F)cc(Cl)c1 [I-748] | 
100 to 200 | c1cc(N2CCOCC2)cc(N[C@@H]2CCCN(c3ccc4c(c3)CCC4)C2)n1 [I-508] | 
10 to 100 | Fc1cccc(N2CCC[C@@H]3CN(c4cc(N5CCCCC5)ccn4)C[C@@H]32)c1 [I-668] | 
< 10 | Cc1sc2c(c1C)C(c1ccc(Cl)cc1)=N[C@@H](CC(=O)NCCOCCOCCOCCOCCCc1ccc(C(=O)c3[nH]cc(C(=O)N[C@@H](CC(=O)N4CCNCC4)c4cccc(Cl)c4)c3-c3c(F)ccc(F)c3C)cc1)c1nnc(C)n1-2 [I-913] | 
< 10 | Cc1cc(CCCOCCOCCOCCOCCOCCN)cc(F)c1-c1c(C(=O)N[C@@H](CC(N)=O)c2cccc(Cl)c2)c[nH]c1C#N [I-918] | 
10 to 100 | Fc1cccc(N2CCC[C@@H](Nc3cc(N4CC5(CCC5)C4)ccn3)C2)c1 [I-577] | 
10 to 100 | C=CC(=O)N1CCC2(CC1)CCN(c1ccnc(N[C@@H]3CCCN(c4cccc(F)c4)C3)c1)CC2 [I-642] | 
< 10 | NC(=O)C[C@H](NC(=O)c1cn[nH]c1-c1c(F)cccc1C1CC1)c1cccc(Cl)c1 [I-590] | 
10 to 100 | COCCOCCOCC[C@@H]1CN(c2cc(N3CCCCC3)ccn2)[C@H]2CCCN(c3cccc(F)c3)[C@@H]12 [I-950] | 
10 to 100 | Nc1ccc(N2CCC[C@H]3[C@@H]2CCN3c2cc(N3CC4CC(C4)C3)ccn2)cc1F [I-734] | 
10 to 100 | Cc1ccc(CCCOCCOCCOCCOCCOCCNC(=O)C[C@@H]2N=C(c3ccc(Cl)cc3)c3c(sc(C)c3C)-n3c(C)nnc32)c(F)c1-c1c(C(=O)N[C@@H](CC(N)=O)c2cccc(Cl)c2)c[nH]c1C#N [I-1052] | 
10 to 100 | COCCN1CCN(c2ccnc(NC3CCCN(c4cccc(F)c4)C3)n2)CC1 (stereo not drawn) [I-28] | 
< 10 | Cc1c(F)ccc(F)c1-c1c(C(=O)N[C@@H](CC(N)=O)c2cccc(Cl)c2)csc1C#N [I-972] | 
< 10 | Cc1c(F)ccc(F)c1-c1c(C(=O)N[C@@H](CC(=O)N2CC[C@@H](O)C2)c2cccc(Cl)c2)cn(C)c1C#N [I-1005] | 
10 to 100 | NC(=O)CC1(NC(=O)c2cn[nH]c2-c2ccccc2F)CCc2ccc(Cl)cc21 (stereo not drawn) [I-607] | 
